Reference: patent US11053204B2, “Pyrimidinyloxy benzene derivatives as herbicides” (FMC Corporation, priority 2015, dated 2021)

Columns and labels:
Assay type in all cases: in vivo
[1] = test system: blackgrass (Alopecurus myosuroides); assay: Test C preemergence, plant response rating; details: scale 0 to 100; for Blackgrass plant response rating: preemergence
Summary of the method: (§1)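 Preemergence: seeds sown in loam–sand blend or silt loam and sprayed with test chemicals in a non-phytotoxic surfactant-containing solvent. Postemergence: potted plants at 2–18 cm (1–4-leaf stage) sprayed with the same formulation. After 13–15 d in greenhouse, visual rating versus controls on 0 (no effect) to 100 (complete control) scale.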

[2] = test system: corn (Zea mays); assay: Test C preemergence, plant response rating; details: scale 0 to 100; for Corn plant response rating: preemergence
Summary of the method: as §1

[3] = test system: crabgrass, large (large crabgrass, Digitaria sanguinalis); assay: Test C preemergence, plant response rating; details: scale 0 to 100; for Crabgrass, Large plant response rating: preemergence
Summary of the method: as §1

[4] = test system: foxtail, giant (giant foxtail, Setaria faberii); assay: Test C preemergence, plant response rating; details: scale 0 to 100; for Foxtail, Giant plant response rating: preemergence
Summary of the method: as §1

[5] = test system: lambsquarters (Chenopodium album); assay: Test C preemergence, plant response rating; details: scale 0 to 100; for Lambsquarters plant response rating: preemergence
Summary of the method: as §1

[6] = test system: morningglory (Ipomoea coccinea); assay: Test C preemergence, plant response rating; details: scale 0 to 100; for Morningglory plant response rating: preemergence
Summary of the method: as §1

[7] = test system: nutsedge, yellow (yellow nutsedge, Cyperus esculentus); assay: Test C preemergence, plant response rating; details: scale 0 to 100; for Nutsedge, Yellow plant response rating: preemergence
Summary of the method: as §1

[8] = test system: oilseed rape (Brassica napus); assay: Test C preemergence, plant response rating; details: scale 0 to 100; for Oilseed Rape plant response rating: preemergence
Summary of the method: as §1

[9] = test system: ragweed (common ragweed, Ambrosia elatior); assay: Test C preemergence, plant response rating; details: scale 0 to 100; for Ragweed plant response rating: preemergence
Summary of the method: as §1

[10] = test system: ryegrass, Italian (Italian ryegrass, Lolium multiflorum); assay: Test C preemergence, plant response rating; details: scale 0 to 100; for Ryegrass, Italian plant response rating: preemergence
Summary of the method: as §1

[11] = test system: soybean (Glycine max); assay: Test C preemergence, plant response rating; details: scale 0 to 100; for Soybean plant response rating: preemergence
Summary of the method: as §1

[12] = test system: velvetleaf (Abutilon theophrasti); assay: Test C preemergence, plant response rating; details: scale 0 to 100; for Velvetleaf plant response rating: preemergence
Summary of the method: as §1

[13] = test system: waterhemp (common waterhemp, Amaranthus rudis); assay: Test C preemergence, plant response rating; details: scale 0 to 100; for Waterhemp plant response rating: preemergence
Summary of the method: as §1

[14] = test system: wheat (winter wheat, Triticum aestivum); assay: Test C preemergence, plant response rating; details: scale 0 to 100; for Wheat plant response rating: preemergence
Summary of the method: as §1

[15] = test system: barnyardgrass (Echinochloa crus-galli); assay: Test C postemergence, plant response rating; details: Echinochloa crus-galli, post-emergence
Summary of the method: as §1

[16] = test system: blackgrass (Alopecurus myosuroides); assay: Test C postemergence, plant response rating; details: Alopecurus myosuroides, post-emergence
Summary of the method: as §1

[17] = test system: foxtail, giant (giant foxtail, Setaria faberii); assay: Test C postemergence, plant response rating; details: Setaria faberi, post-emergence
Summary of the method: as §1

[18] = test system: morningglory (Ipomoea coccinea); assay: Test C postemergence, plant response rating; details: Ipomoea, post-emergence
Summary of the method: as §1

[19] = test system: oilseed rape (Brassica napus); assay: Test C postemergence, plant response rating; details: Brassica napus, post-emergence
Summary of the method: as §1

[20] = test system: velvetleaf (Abutilon theophrasti); assay: Test C postemergence, plant response rating; details: Abutilon theophrasti, post-emergence
Summary of the method: as §1

[21] = test system: wheat (winter wheat, Triticum aestivum); assay: Test C postemergence, plant response rating; details: Triticum aestivum, post-emergence
Summary of the method: as §1

## CCCOC(=O)c1c(Br)cccc1Oc1ncc(Cl)cn1 [Compound 13, propyl 2-bromo-6-[(5-chloro-2-pyrimidinyl)oxy]benzoate]
[1]; Alopecurus myosuroides, pre-emergence, Preemergence, 16 g ai/ha
  pest or weed control at 16 g/ha: 0%
[1]; Alopecurus myosuroides, pre-emergence, Preemergence, 31 g ai/ha
  pest or weed control at 31 g/ha: 0%
[1]; 4 g ai/ha
  Blackgrass plant response rating: 0
[1]; 8 g ai/ha
  Blackgrass plant response rating: 0
[2]; Zea mays, pre-emergence, Preemergence, 16 g ai/ha
  Corn plant response rating (crop injury, 0 = no effect, 100 = complete kill) at 16 g/ha: 5%
[2]; Zea mays, pre-emergence, Preemergence, 31 g ai/ha
  Corn plant response rating (crop injury, 0 = no effect, 100 = complete kill) at 31 g/ha: 10%
[2]; 4 g ai/ha
  Corn plant response rating: 0
[2]; 8 g ai/ha
  Corn plant response rating: 0
[3]; Digitaria sanguinalis, pre-emergence, Preemergence, 16 g ai/ha
  pest or weed control at 16 g/ha: 60%
[3]; Digitaria sanguinalis, pre-emergence, Preemergence, 31 g ai/ha
  pest or weed control at 31 g/ha: 85%
[3]; 4 g ai/ha
  Crabgrass, Large plant response rating: 25
[3]; 8 g ai/ha
  Crabgrass, Large plant response rating: 30
[4]; Setaria faberi, pre-emergence, Preemergence, 16 g ai/ha
  pest or weed control at 16 g/ha: 0%
[4]; Setaria faberi, pre-emergence, Preemergence, 31 g ai/ha
  pest or weed control at 31 g/ha: 95%
[4]; 4 g ai/ha
  Foxtail, Giant plant response rating: 0
[4]; 8 g ai/ha
  Foxtail, Giant plant response rating: 0
[5]; Chenopodium album, pre-emergence, Preemergence, 16 g ai/ha
  pest or weed control at 16 g/ha: 50%
[5]; Chenopodium album, pre-emergence, Preemergence, 31 g ai/ha
  pest or weed control at 31 g/ha: 15%
[5]; 4 g ai/ha
  Lambsquarters plant response rating: 0
[5]; 8 g ai/ha
  Lambsquarters plant response rating: 5
[6]; Ipomoea, pre-emergence, Preemergence, 16 g ai/ha
  pest or weed control at 16 g/ha: 5%
[6]; Ipomoea, pre-emergence, Preemergence, 31 g ai/ha
  pest or weed control at 31 g/ha: 5%
[6]; 4 g ai/ha
  Morningglory plant response rating: 0
[6]; 8 g ai/ha
  Morningglory plant response rating: 0
[7]; Cyperus, pre-emergence, Preemergence, 16 g ai/ha
  pest or weed control at 16 g/ha: 0%
[7]; Cyperus, pre-emergence, Preemergence, 31 g ai/ha
  pest or weed control at 31 g/ha: 5%
[7]; 4 g ai/ha
  Nutsedge, Yellow plant response rating: 0
[7]; 8 g ai/ha
  Nutsedge, Yellow plant response rating: 0
[8]; Brassica napus, pre-emergence, Preemergence, 16 g ai/ha
  plant injury at 16 g/ha: 0%
[8]; Brassica napus, pre-emergence, Preemergence, 31 g ai/ha
  plant injury at 31 g/ha: 50%
[8]; 4 g ai/ha
  Oilseed Rape plant response rating: 0
[8]; 8 g ai/ha
  Oilseed Rape plant response rating: 0
[9]; Ambrosia artemisiifolia, pre-emergence, Preemergence, 16 g ai/ha
  pest or weed control at 16 g/ha: 0%
[9]; Ambrosia artemisiifolia, pre-emergence, Preemergence, 31 g ai/ha
  pest or weed control at 31 g/ha: 10%
[9]; 4 g ai/ha
  Ragweed plant response rating: 0
[9]; 8 g ai/ha
  Ragweed plant response rating: 0
[10]; Lolium multiflorum, pre-emergence, Preemergence, 16 g ai/ha
  pest or weed control at 16 g/ha: 0%
[10]; Lolium multiflorum, pre-emergence, Preemergence, 31 g ai/ha
  pest or weed control at 31 g/ha: 0%
[10]; 4 g ai/ha
  Ryegrass, Italian plant response rating: 0
[10]; 8 g ai/ha
  Ryegrass, Italian plant response rating: 0
[11]; Glycine max, pre-emergence, Preemergence, 16 g ai/ha
  plant injury at 16 g/ha: 5%
[11]; Glycine max, pre-emergence, Preemergence, 31 g ai/ha
  plant injury at 31 g/ha: 5%
[11]; 4 g ai/ha
  Soybean plant response rating: 0
[11]; 8 g ai/ha
  Soybean plant response rating: 0
[12]; Abutilon theophrasti, pre-emergence, Preemergence, 16 g ai/ha
  pest or weed control at 16 g/ha: 20%
[12]; Abutilon theophrasti, pre-emergence, Preemergence, 31 g ai/ha
  pest or weed control at 31 g/ha: 70%
[12]; 4 g ai/ha
  Velvetleaf plant response rating: 5
[12]; 8 g ai/ha
  Velvetleaf plant response rating: 10
[13]; Amaranthus tuberculatus, pre-emergence, Preemergence, 16 g ai/ha
  pest or weed control at 16 g/ha: 80%
[13]; Amaranthus tuberculatus, pre-emergence, Preemergence, 31 g ai/ha
  pest or weed control at 31 g/ha: 100%
[13]; 4 g ai/ha
  Waterhemp plant response rating: 5
[13]; 8 g ai/ha
  Waterhemp plant response rating: 10
[14]; Triticum aestivum, pre-emergence, Preemergence, 16 g ai/ha
  plant injury at 16 g/ha: 0%
[14]; Triticum aestivum, pre-emergence, Preemergence, 31 g ai/ha
  plant injury at 31 g/ha: 5%
[14]; 4 g ai/ha
  Wheat plant response rating: 0
[14]; 8 g ai/ha
  Wheat plant response rating: 0
[15]; 4 g ai/ha, scale of 0 to 100
  pest or weed control at 4 g/ha: 5%
[15]; 8 g ai/ha, scale of 0 to 100
  pest or weed control at 8 g/ha: 5%
[15]; 16 g ai/ha, scale 0 to 100
  pest or weed control at 16 g/ha: 10%
[15]; 31 g ai/ha, scale 0 to 100
  pest or weed control at 31 g/ha: 10%
[16]; 4 g ai/ha, scale of 0 to 100
  pest or weed control at 4 g/ha: 0%
[16]; 8 g ai/ha, scale of 0 to 100
  pest or weed control at 8 g/ha: 0%
[16]; 16 g ai/ha, scale 0 to 100
  pest or weed control at 16 g/ha: 0%
[16]; 31 g ai/ha, scale 0 to 100
  pest or weed control at 31 g/ha: 5%
[17]; 4 g ai/ha, scale of 0 to 100
  pest or weed control at 4 g/ha: 5%
[17]; 8 g ai/ha, scale of 0 to 100
  pest or weed control at 8 g/ha: 5%
[17]; 16 g ai/ha, scale 0 to 100
  pest or weed control at 16 g/ha: 10%
[17]; 31 g ai/ha, scale 0 to 100
  pest or weed control at 31 g/ha: 25%
[18]; 4 g ai/ha, scale of 0 to 100
  pest or weed control at 4 g/ha: 5%
[18]; 8 g ai/ha, scale of 0 to 100
  pest or weed control at 8 g/ha: 5%
[18]; 16 g ai/ha, scale 0 to 100
  pest or weed control at 16 g/ha: 20%
[18]; 31 g ai/ha, scale 0 to 100
  pest or weed control at 31 g/ha: 30%
[19]; 4 g ai/ha, scale of 0 to 100
  plant injury at 4 g/ha: 0%
[19]; 8 g ai/ha, scale of 0 to 100
  plant injury at 8 g/ha: 0%
[19]; 16 g ai/ha, scale 0 to 100
  plant injury at 16 g/ha: 0%
[19]; 31 g ai/ha, scale 0 to 100
  plant injury at 31 g/ha: 35%
[20]; 4 g ai/ha, scale of 0 to 100
  pest or weed control at 4 g/ha: 15%
[20]; 8 g ai/ha, scale of 0 to 100
  pest or weed control at 8 g/ha: 15%
[20]; 16 g ai/ha, scale 0 to 100
  pest or weed control at 16 g/ha: 20%
[20]; 31 g ai/ha, scale 0 to 100
  pest or weed control at 31 g/ha: 25%
[21]; 4 g ai/ha, scale of 0 to 100
  plant injury at 4 g/ha: 0%
[21]; 8 g ai/ha, scale of 0 to 100
  plant injury at 8 g/ha: 0%
[21]; 16 g ai/ha, scale 0 to 100
  plant injury at 16 g/ha: 0%
[21]; 31 g ai/ha, scale 0 to 100
  plant injury at 31 g/ha: 0%
